Results taken from patent US20260083865A1, “PROSTATE SPECIFIC MEMBRANE ANTIGEN (PSMA) LIGANDS AND USE THEREOF” (priority 2022, published 2026).
Where two headings read alike, the source gives them in different places. Numbered stars: 1 amine (or outer) side, 2 acyl side, 3 side chain; on linkers, the order of the positions; unused ones are H or OH. Bridge positions count the residues as written; N and C are the ends. Square brackets hold non-standard residues; d marks the D form. Peptide text beside a SMILES is read from it. * marks the point of attachment. TtdsdLys(DOTA)NH2 = NC(=O)[C@@H](CCCCNC(=O)CN1CCN(CC(=O)O)CCN(CC(=O)O)CCN(CC(=O)O)CC1)NC(=O)CCC(=O)NCCCOCCOCCOCCCN*; DOTA = O=C(O)CN1CCN(CC(=O)O)CCN(CC(=O)*)CCN(CC(=O)O)CC1; Phe(4-CH2COOH) = N[C@@H](Cc1ccc(CC(=O)O)cc1)C(=O)O; Phe(3-Cl) = N[C@@H](Cc1cccc(Cl)c1)C(=O)O; Phe(4-Cl) = N[C@@H](Cc1ccc(Cl)cc1)C(=O)O; Phe(2-Cl) = N[C@@H](Cc1ccccc1Cl)C(=O)O; tBuAla = CC(C)(C)C[C@H](N)C(=O)O; X1 = O=C(CC1CCN([*:1])CC1)[*:2]; Tle = CC(C)(C)[C@H](N)C(=O)O; Pyridin(2-yl) = c1ccc(*)nc1; Nle = CCCC[C@H](N)C(=O)O; Orn = NCCC[C@H](N)C(=O)O; Hexanoyl = CCCCCC(=O)*; Aib = CC(C)(N)C(=O)O; CO = O=C([*:1])[*:2]; CH2 = C([*:1])[*:2]; NHBu = CCCCN*

Key:
[1] = biological target: T1, PSMA-expressing C4-2 cells (Homo sapiens, UniProt Q04609); assay: FACS binding assay (competition with 50 nM PSM-0183); details: C4-2 cells, read-out: pIC50 [C4-2] CAT (converted)
T1 construct: PSMA-expressing C4-2 cells (ATCC, Cat. No. CRL-3314) were cultured in RPMI-1640; host or cells: C4-2 cells
In short: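 Competition format: fluorescent tracer PSM-0183 (50 nM) displaced from PSMA on C4-2 cells by a test compound titration over 1 h at 4 °C. Bound tracer was quantified as flow-cytometric AF488 median fluorescence after washing. Four-parameter logistic fits of MFI data gave IC50 and pIC50.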

[2] = biological target: T2, Fc-fusion protein of human PSMA (hPSMA-Fc) (Homo sapiens, UniProt Q04609); assay: Surface plasmon resonance assay (Biacore T200, single cycle kinetic); assay type: binding; details: read-out: pKD CAT (converted)
T2 construct: purchased Acro Biosystems PSA-H5264
In short: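 KD, expressed as pKD, came from 1:1 Langmuir fits of reference- and buffer-blank-subtracted SPR data. The runs were single-cycle kinetics at 25° C in HBST/0.1% DMSO over human PSMA-Fc, captured to ~1000 RU on a peptide-coated CM5 surface and regenerated with 10 mM glycine pH 1.5.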

[3] = pKD category for PSMA SPR activity assay, hPSMA-Fc, 25° C.

T1 sequence (Q04609 whole entry): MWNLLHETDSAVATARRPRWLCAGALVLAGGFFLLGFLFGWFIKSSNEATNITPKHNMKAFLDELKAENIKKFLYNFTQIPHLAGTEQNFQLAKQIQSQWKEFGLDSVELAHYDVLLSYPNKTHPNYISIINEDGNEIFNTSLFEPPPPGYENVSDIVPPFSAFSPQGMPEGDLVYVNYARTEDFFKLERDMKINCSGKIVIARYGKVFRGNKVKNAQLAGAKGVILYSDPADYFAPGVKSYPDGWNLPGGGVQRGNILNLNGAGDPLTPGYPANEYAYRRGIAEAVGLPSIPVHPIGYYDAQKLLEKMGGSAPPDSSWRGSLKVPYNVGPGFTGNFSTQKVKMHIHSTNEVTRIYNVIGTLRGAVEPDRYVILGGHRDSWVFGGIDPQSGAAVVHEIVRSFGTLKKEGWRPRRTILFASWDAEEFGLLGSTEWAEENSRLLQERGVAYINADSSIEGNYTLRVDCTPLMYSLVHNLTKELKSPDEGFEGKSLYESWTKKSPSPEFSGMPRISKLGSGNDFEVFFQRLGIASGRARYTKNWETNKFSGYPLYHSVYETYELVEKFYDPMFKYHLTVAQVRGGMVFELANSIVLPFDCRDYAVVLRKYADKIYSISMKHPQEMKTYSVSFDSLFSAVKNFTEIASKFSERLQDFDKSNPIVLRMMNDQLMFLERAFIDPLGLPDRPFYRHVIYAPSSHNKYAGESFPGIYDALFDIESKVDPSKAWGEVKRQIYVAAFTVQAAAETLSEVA
T2 sequence (Q04609 44-750 limits assumed): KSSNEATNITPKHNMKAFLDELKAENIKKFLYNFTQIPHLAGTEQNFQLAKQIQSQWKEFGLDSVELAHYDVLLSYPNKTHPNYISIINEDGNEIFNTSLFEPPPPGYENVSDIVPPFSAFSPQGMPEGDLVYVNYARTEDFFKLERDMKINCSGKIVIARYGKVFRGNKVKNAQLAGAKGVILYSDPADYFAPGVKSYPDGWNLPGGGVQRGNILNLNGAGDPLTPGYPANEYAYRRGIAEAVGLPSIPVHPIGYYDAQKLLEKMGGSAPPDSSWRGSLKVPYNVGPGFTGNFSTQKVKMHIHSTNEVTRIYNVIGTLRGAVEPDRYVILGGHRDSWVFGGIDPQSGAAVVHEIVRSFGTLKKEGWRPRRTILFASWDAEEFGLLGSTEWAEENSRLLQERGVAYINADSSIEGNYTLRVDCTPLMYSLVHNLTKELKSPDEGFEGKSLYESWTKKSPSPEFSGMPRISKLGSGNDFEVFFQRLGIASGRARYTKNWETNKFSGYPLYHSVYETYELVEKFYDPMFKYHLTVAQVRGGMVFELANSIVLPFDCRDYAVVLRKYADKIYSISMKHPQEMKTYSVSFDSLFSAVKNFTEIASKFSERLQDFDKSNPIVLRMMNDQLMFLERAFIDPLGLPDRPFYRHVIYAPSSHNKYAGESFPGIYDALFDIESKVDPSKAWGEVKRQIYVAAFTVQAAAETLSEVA

SMILES	IC50 ([1]; pIC50 category of FACS binding) [µM]	Kd [2, 3] [µM]	IC50 ([1]; FACS binding, category) [µM]	Kd ([2]; PSMA SPR assay, category) [µM]
CC(=O)N[C@H](C(=O)NC(C)(C)C(=O)N[C@@H](Cc1ccccc1)C(=O)N[C@H]1CSSC[C@@H](C(=O)N[C@H](C(=O)N[C@@H](Cc2ccccc2)C(N)=O)C(C)(C)C)NC(=O)[C@H](CC(N)=O)NC(=O)C(C)(C)NC(=O)[C@H](CCCNC(=N)N)NC(=O)[C@H](CCCCN)NC1=O)[C@@H](C)O [PSM-0556, Ac-Thr-Aib-Phe-[Cys-Lys-Arg-Aib-Asn-Cys]-Tle-Phe-NH2] (Ac-T[Aib]FCKR[Aib]NC[Tle]F-NH2; disulfide 4-9)	< 0.2	< 0.0126		
CC(=O)N[C@H](C(=O)NC(C)(C)C(=O)N[C@@H](Cc1ccccc1Cl)C(=O)N[C@H]1CSSC[C@@H](C(=O)N[C@H](C(=O)N[C@H](C(=O)N[C@@H](CC(=O)O)C(N)=O)[C@@H](C)O)C(C)(C)C)NC(=O)[C@H](CC(N)=O)NC(=O)C(C)(C)NC(=O)[C@H](CCCNC(=N)N)NC(=O)[C@H](CCCCN)NC1=O)[C@@H](C)O [PSM-0558, Ac-Thr-Aib-Ocf-[Cys-Lys-Arg-Aib-Asn-Cys]-Tle-Thr-Asp-NH2] (Ac-T[Aib][Phe(2-Cl)]CKR[Aib]NC[Tle]TD-NH2; disulfide 4-9)	< 0.2	0.0126 to 0.126		
CC(=O)NC(C)(C)C(=O)N[C@@H](Cc1ccc(Cl)cc1)C(=O)N[C@H]1CSSC[C@@H](C(=O)N[C@H](C(=O)N[C@H](C(N)=O)[C@@H](C)O)C(C)(C)C)NC(=O)[C@H](CC(N)=O)NC(=O)C(C)(C)NC(=O)[C@H](CCCNC(=N)N)NC(=O)[C@H](CCCCN)NC1=O [PSM-0559, Ac-Aib-Pcf-[Cys-Lys-Arg-Aib-Asn-Cys]-Tle-Thr-NH2] (Ac-[Aib][Phe(4-Cl)]CKR[Aib]NC[Tle]T-NH2; disulfide 3-8)			< 0.2	< 0.0126
CC(=O)N[C@H](C(=O)NC(C)(C)C(=O)N[C@@H](Cc1ccccc1)C(=O)N[C@H]1CSSC[C@@H](C(=O)N[C@@H](CC(C)(C)C)C(N)=O)NC(=O)[C@H](CC(N)=O)NC(=O)C(C)(C)NC(=O)[C@H](CCCNC(=N)N)NC(=O)[C@H](CCCCN)NC1=O)[C@@H](C)O [PSM-0560, Ac-Thr-Aib-Phe-[Cys-Lys-Arg-Aib-Asn-Cys]-Npg-NH2] (Ac-T[Aib]FCKR[Aib]NC[tBuAla]-NH2; disulfide 4-9)			< 0.2	0.0126 to 0.126
CCCC[C@H](NC(=O)[C@@H]1CSSC[C@H](NC(=O)[C@H](Cc2ccccc2)NC(=O)[C@H](C)NC(=O)[C@@H](NC(C)=O)[C@@H](C)O)C(=O)N[C@@H](CCCCN)C(=O)N[C@@H](CCCNC(=N)N)C(=O)N[C@@H](C)C(=O)N[C@@H](CC(N)=O)C(=O)N1)C(=O)N[C@H](C(=O)N[C@@H](C)C(N)=O)[C@@H](C)O [PSM-0562, Ac-Thr-Als-Phe-[Cys-Lys-Arg-Ala-Asn-Cys]-Nle-Thr-Ala-NH2] (Ac-TAFCKRANC[Nle]TA-NH2; disulfide 4-9)			0.2 to 1.26	0.126 to 0.501
CC(=O)N[C@H](C(=O)NC(C)(C)C(=O)N[C@@H](Cc1ccccc1)C(=O)N[C@H]1CSSC[C@@H](C(=O)N[C@H](C(=O)N[C@H](C(N)=O)[C@@H](C)O)C(C)(C)C)NC(=O)[C@H](CCC(=O)O)NC(=O)C(C)(C)NC(=O)[C@H](CCCNC(=N)N)NC(=O)[C@H](CCCCN)NC1=O)[C@@H](C)O [PSM-0563, Ac-Thr-Aib-Phe-[Cys-Lys-Arg-Aib-Glu-Cys]-Tle-Thr-NH2] (Ac-T[Aib]FCKR[Aib]EC[Tle]T-NH2; disulfide 4-9)			< 0.2	0.0126 to 0.126
CCCC[C@H](NC(=O)[C@@H]1CSSC[C@H](NC(=O)[C@H](Cc2ccccc2)NC(=O)[C@H](C)NC(=O)[C@@H](NC(C)=O)[C@@H](C)O)C(=O)N[C@@H](CCCCN)C(=O)N2CCC[C@H]2C(=O)N[C@@H](C)C(=O)N[C@@H](CC(N)=O)C(=O)N1)C(=O)N[C@H](C(=O)N[C@@H](CC(=O)O)C(N)=O)[C@@H](C)O [PSM-0564, Ac-Thr-Als-Phe-[Cys-Lys-Pro-Ala-Asn-Cys]-Nle-Thr-Asp-NH2] (Ac-TAFCKPANC[Nle]TD-NH2; disulfide 4-9)			> 3.16	> 0.501
CC(=O)N[C@H](C(=O)NC(C)(C)C(=O)N[C@@H](Cc1ccccc1)C(=O)N[C@H]1CSSC[C@@H](C(=O)N[C@H](C(=O)N[C@H](C(=O)N[C@@H](CC(=O)O)C(N)=O)[C@@H](C)O)C(C)(C)C)NC(=O)[C@H](CC(N)=O)NC(=O)[C@H](C)NC(=O)[C@H](CCCNC(=N)N)NC(=O)[C@H](CCCCN)NC1=O)[C@@H](C)O [PSM-0565, Ac-Thr-Aib-Phe-[Cys-Lys-Arg-Ala-Asn-Cys]-Tle-Thr-Asp-NH2] (Ac-T[Aib]FCKRANC[Tle]TD-NH2; disulfide 4-9)			< 0.2	< 0.0126
C[C@@H](O)[C@H](NC(=O)[C@@H](NC(=O)[C@@H]1CSSC[C@H](NC(=O)[C@H](Cc2ccc(CC(=O)O)cc2)NC(=O)C(C)(C)NC(=O)[C@@H](NC(=O)CC2CCN(C(=O)CN3CCN(CC(=O)O)CCN(CC(=O)O)CCN(CC(=O)O)CC3)CC2)[C@@H](C)O)C(=O)N[C@@H](CCCCN)C(=O)N[C@@H](CCCNC(=N)N)C(=O)NC(C)(C)C(=O)N[C@@H](CC(N)=O)C(=O)N1)C(C)(C)C)C(N)=O [PSM-0566, DOTA-Cmp-Thr-Aib-Fac-[Cys-Lys-Arg-Aib-Asn-Cys]-Tle-Thr-NH2] ({DOTA}-[X1]T[Aib][Phe(4-CH2COOH)]CKR[Aib]NC[Tle]T-NH2; disulfide 5-10)			> 3.16	> 0.501
CC(=O)N[C@H](C(=O)NC(C)(C)C(=O)N[C@@H](Cc1ccccc1)C(=O)N[C@H]1CSCSC[C@@H](C(=O)N[C@H](C(=O)N[C@H](C(=O)N[C@@H](CC(=O)O)C(N)=O)[C@@H](C)O)C(C)(C)C)NC(=O)[C@H](CC(N)=O)NC(=O)[C@H](C)NC(=O)[C@H](CCCNC(=N)N)NC(=O)[C@H](CCCCN)NC1=O)[C@@H](C)O [PSM-0567, Ac-Thr-Aib-Phe-[Smc-Lys-Arg-Ala-Asn-Cys]-Tle-Thr-Asp-NH2] (Ac-T[Aib]FCKRANC[Tle]TD-NH2; linker 4-9 via CH2)			< 0.2	< 0.0126
CCCCCC(=O)N[C@H](C(=O)N[C@@H](C)C(=O)N[C@@H](Cc1ccccc1)C(=O)N[C@H]1CSSC[C@@H](C(=O)N[C@H](C(=O)N[C@H](C(=O)N[C@@H](CC(=O)O)C(=O)NCCCOCCOCCOCCCNC(=O)CCC(=O)N[C@H](CCCCNC(=O)CN2CCN(CC(=O)O)CCN(CC(=O)O)CCN(CC(=O)O)CC2)C(N)=O)[C@@H](C)O)C(C)(C)C)NC(=O)[C@H](CC(N)=O)NC(=O)[C@H](C)NC(=O)[C@H](CCCNC(=N)N)NC(=O)[C@H](CCCCN)NC1=O)[C@@H](C)O [PSM-0568, Hex-Thr-Ala-Phe-[Cys-Lys-Arg-Ala-Asn-Cys]-Tle-Thr-Asp-Ttds-lys(DOTA)-NH2] (Hexanoyl-TAFCKRANC[Tle]TD-{TtdsdLys(DOTA)NH2}; disulfide 4-9)			< 0.2	0.0126 to 0.126
CC(=O)NC(=N)NCCC[C@@H]1NC(=O)[C@H](CCCCN)NC(=O)[C@@H](NC(=O)[C@H](Cc2ccc(Cl)cc2)NC(=O)C(C)(C)NC(=O)[C@@H](NC(C)=O)[C@@H](C)O)CSSC[C@@H](C(=O)N[C@H](C(=O)N[C@H](C(N)=O)[C@@H](C)O)C(C)(C)C)NC(=O)[C@H](CC(N)=O)NC(=O)C(C)(C)NC1=O [PSM-0569, Ac-Thr-Aib-Pcf-[Cys-Lys-Arg(Ac)-Aib-Asn-Cys]-Tle-Thr-NH2] (Ac-T[Aib][Phe(4-Cl)]CKR(Ac)[Aib]NC[Tle]T-NH2; disulfide 4-9)			< 0.2	< 0.0126
CCCC[C@@H]1NC(=O)[C@@H](NC(=O)[C@H](Cc2ccc(Cl)cc2)NC(=O)C(C)(C)NC(=O)[C@@H](NC(C)=O)[C@@H](C)O)CSSC[C@@H](C(=O)N[C@H](C(=O)N[C@H](C(N)=O)[C@@H](C)O)C(C)(C)C)NC(=O)[C@H](CC(N)=O)NC(=O)C(C)(C)NC(=O)[C@H](CCCNC(=N)NC(C)=O)NC1=O [PSM-0570, Ac-Thr-Aib-Pcf-[Cys-Nle-Arg(Ac)-Aib-Asn-Cys]-Tle-Thr-NH2] (Ac-T[Aib][Phe(4-Cl)]C[Nle]R(Ac)[Aib]NC[Tle]T-NH2; disulfide 4-9)			< 0.2	0.0126 to 0.126
CCCCNC(=O)N[C@H](C(=O)NC(C)(C)C(=O)N[C@@H](Cc1cccc(Cl)c1)C(=O)N[C@H]1CSSC[C@@H](C(=O)N[C@H](C(=O)N[C@H](C(=O)N2CCC(CC(=O)N[C@H](CCCCNC(=O)CN3CCN(CC(=O)O)CCN(CC(=O)O)CCN(CC(=O)O)CC3)C(N)=O)CC2)[C@@H](C)O)C(C)(C)C)NC(=O)[C@H](CC(N)=O)NC(=O)C(C)(C)NC(=O)[C@H](CCCNc2ccccn2)NC(=O)[C@H](CCCCN)NC1=O)[C@@H](C)O [PSM-0571, nBuCAyl-Thr-Aib-Mcf-[Cys-Lys-Opy-Aib-Asn-Cys]-Tle-Thr-Cmp-lys(DOTA)-NH2] ({NHBu-CO}-T[Aib][Phe(3-Cl)]CK[Orn](Pyridin(2-yl))[Aib]NC[Tle]T[X1][dK](DOTA)-NH2; disulfide 4-9)			0.2 to 1.26	0.0126 to 0.126
